According to patent publication US12077503B2, “Substituted cyclic amides and their use as herbicides” (FMC CORPORATION, priority 2015, dated 2024):

Legend:
Format in all cases: in vivo
[1] = tested on: redroot pigweed (Amaranthus retroflexus); assay: Test G Pre-Emergence Protocol; conditions: Amaranthus retroflexus, pre-emergence, 312 h, evaluated after 13 days; for pest or weed control at 15.625 g/ha: 15.625 g ai/ha; for pest or weed control at 15.625 g/ha / pest or weed control at 250 g/ha: read-out: Pigweed, Redroot damage rating (100=total damage to plant; 0=no damage to plant); for pest or weed control at 62.5 g/ha: 62.5 g ai/ha, 100=total damage to plant, 0=no damage to plant, read-out: plant damage rating, Pigweed, Redroot; for pest or weed control at 250 g/ha: 250 g ai/ha
In short: (§1)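 Pre-emergence spray, 15.625/62.5/250 g/ha, vehicle acetone:water 50:50 + 0.5% Tween 20, applied 1 d after sowing. Glasshouse 24/16° C, 14 h light, 65% RH, watered twice daily. Visual damage rating at 13 d, 0–100 scale.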

[2] = tested on: barnyardgrass (Echinochloa crus-galli); assay: Test G Pre-Emergence Protocol; conditions: Echinochloa crus-galli, pre-emergence, 312 h, evaluated after 13 days; for pest or weed control at 15.625 g/ha: 15.625 g ai/ha, read-out: Barnyard grass damage rating (100=total damage to plant; 0=no damage to plant); for pest or weed control at 62.5 g/ha: 62.5 g ai/ha, 100=total damage to plant, 0=no damage to plant, read-out: plant damage rating, Barnyardgrass; for pest or weed control at 250 g/ha: 250 g ai/ha, read-out: Barnyardgrass damage rating (100=total damage to plant; 0=no damage to plant)
In short: as §1

corn (Zea mays) [3] = assay: Test G Pre-Emergence Protocol; conditions: Zea mays, pre-emergence, 312 h, evaluated after 13 days; for plant injury at 15.625 g/ha: 15.625 g ai/ha; for plant injury at 15.625 g/ha / plant injury at 250 g/ha: read-out: Corn damage rating (100=total damage to plant; 0=no damage to plant); for plant injury at 62.5 g/ha: 62.5 g ai/ha, 100=total damage to plant, 0=no damage to plant, read-out: plant damage rating, Corn; for plant injury at 250 g/ha: 250 g ai/ha
In short: as §1

[4] = tested on: giant foxtail (Setaria faberi); assay: Test G Pre-Emergence Protocol; conditions: Setaria faberi, pre-emergence, 312 h, evaluated after 13 days; for pest or weed control at 15.625 g/ha: 15.625 g ai/ha; for pest or weed control at 15.625 g/ha / pest or weed control at 250 g/ha: read-out: Foxtail, Giant damage rating (100=total damage to plant; 0=no damage to plant); for pest or weed control at 62.5 g/ha: 62.5 g ai/ha, 100=total damage to plant, 0=no damage to plant, read-out: plant damage rating, Foxtail, Giant; for pest or weed control at 250 g/ha: 250 g ai/ha
In short: as §1

[5] = tested on: velvetleaf (Abutilon theophrasti); assay: Test G Pre-Emergence Protocol; conditions: Abutilon theophrasti, pre-emergence, 312 h, evaluated after 13 days; for pest or weed control at 15.625 g/ha: 15.625 g ai/ha; for pest or weed control at 15.625 g/ha / pest or weed control at 250 g/ha: read-out: Velvetleaf damage rating (100=total damage to plant; 0=no damage to plant); for pest or weed control at 62.5 g/ha: 62.5 g ai/ha, 100=total damage to plant, 0=no damage to plant, read-out: plant damage rating, Velvetleaf; for pest or weed control at 250 g/ha: 250 g ai/ha
In short: as §1

[6] = tested on: ivy-leaved morning glory (Ipomoea hederacea); assay: Test G Pre-Emergence Protocol; conditions: Ipomoea, pre-emergence, 312 h, evaluated after 13 days; for pest or weed control at 15.625 g/ha: 15.625 g ai/ha, read-out: Morning-glory, Ivy-leaved damage rating (100=total damage to plant; 0=no damage to plant); for pest or weed control at 62.5 g/ha: 62.5 g ai/ha, 100=total damage to plant, 0=no damage to plant, read-out: plant damage rating, Morningglory, Ivy-leaved; for pest or weed control at 250 g/ha: 250 g ai/ha, read-out: Morningglory, Ivy-leaved damage rating (100=total damage to plant; 0=no damage to plant)
In short: as §1

[7] = tested on: redroot pigweed (Amaranthus retroflexus); assay: Test G Post-Emergence Protocol; conditions: Amaranthus retroflexus, post-emergence, 312 h; for pest or weed control at 15.625 g/ha: 15.625 g ai/ha, evaluated after 13 days (100=total damage to plant; 0=no damage to plant), read-out: Pigweed, Redroot damage rating; for pest or weed control at 62.5 g/ha: 62.5 g ai/ha, read-out: Pigweed, Redroot damage rating (100=total damage to plant; 0=no damage to plant); for pest or weed control at 62.5 g/ha / pest or weed control at 250 g/ha: evaluated after 13 days; for pest or weed control at 250 g/ha: 250 g ai/ha, read-out: damage to plant, Pigweed, Redroot (100=total damage to plant; 0=no damage to plant)
In short: (§2)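 Eight days post-sowing, plants received a spray of test compound (acetone/water 50:50, 0.5% Tween 20) at 15.625, 62.5 or 250 g/ha. Glasshouse regime thereafter: 24/16 °C, 14 h light, 65% humidity. Assessment after 13 days on a 0–100 damage scale.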

[8] = tested on: barnyardgrass (Echinochloa crus-galli); assay: Test G Post-Emergence Protocol; conditions: Echinochloa crus-galli, post-emergence, 312 h; for pest or weed control at 15.625 g/ha: 15.625 g ai/ha, evaluated after 13 days (100=total damage to plant; 0=no damage to plant), read-out: Barnyardgrass damage rating; for pest or weed control at 62.5 g/ha: 62.5 g ai/ha, read-out: Barnyardgrass damage rating (100=total damage to plant; 0=no damage to plant); for pest or weed control at 62.5 g/ha / pest or weed control at 250 g/ha: evaluated after 13 days; for pest or weed control at 250 g/ha: 250 g ai/ha, read-out: damage to plant, Barnyardgrass (100=total damage to plant; 0=no damage to plant)
In short: as §2

corn (Zea mays) [9] = assay: Test G Post-Emergence Protocol; conditions: Zea mays, post-emergence, 312 h; for plant injury at 15.625 g/ha: 15.625 g ai/ha, evaluated after 13 days (100=total damage to plant; 0=no damage to plant), read-out: Corn damage rating; for plant injury at 62.5 g/ha: 62.5 g ai/ha, read-out: Corn damage rating (100=total damage to plant; 0=no damage to plant); for plant injury at 62.5 g/ha / plant injury at 250 g/ha: evaluated after 13 days; for plant injury at 250 g/ha: 250 g ai/ha, read-out: damage to plant, Corn (100=total damage to plant; 0=no damage to plant)
In short: as §2

[10] = tested on: giant foxtail (Setaria faberi); assay: Test G Post-Emergence Protocol; conditions: Setaria faberi, post-emergence, 312 h; for pest or weed control at 15.625 g/ha: 15.625 g ai/ha, evaluated after 13 days (100=total damage to plant; 0=no damage to plant), read-out: Foxtail, Giant damage rating; for pest or weed control at 62.5 g/ha: 62.5 g ai/ha, read-out: Foxtail, Giant damage rating (100=total damage to plant; 0=no damage to plant); for pest or weed control at 62.5 g/ha / pest or weed control at 250 g/ha: evaluated after 13 days; for pest or weed control at 250 g/ha: 250 g ai/ha, read-out: damage to plant, Foxtail, Giant (100=total damage to plant; 0=no damage to plant)
In short: as §2

[11] = tested on: velvetleaf (Abutilon theophrasti); assay: Test G Post-Emergence Protocol; conditions: Abutilon theophrasti, post-emergence, 312 h; for pest or weed control at 15.625 g/ha: 15.625 g ai/ha, evaluated after 13 days (100=total damage to plant; 0=no damage to plant), read-out: Velvetleaf damage rating; for pest or weed control at 62.5 g/ha: 62.5 g ai/ha, read-out: Velvetleaf damage rating (100=total damage to plant; 0=no damage to plant); for pest or weed control at 62.5 g/ha / pest or weed control at 250 g/ha: evaluated after 13 days; for pest or weed control at 250 g/ha: 250 g ai/ha, read-out: damage to plant, Velvetleaf (100=total damage to plant; 0=no damage to plant)
In short: as §2

[12] = tested on: ivy-leaved morning glory (Ipomoea hederacea); assay: Test G Post-Emergence Protocol; conditions: Ipomoea, post-emergence, 312 h; for pest or weed control at 15.625 g/ha: 15.625 g ai/ha, evaluated after 13 days (100=total damage to plant; 0=no damage to plant), read-out: Morningglory, Ivy-leaved damage rating; for pest or weed control at 62.5 g/ha: 62.5 g ai/ha, read-out: Morningglory, Ivy-leaved damage rating (100=total damage to plant; 0=no damage to plant); for pest or weed control at 62.5 g/ha / pest or weed control at 250 g/ha: evaluated after 13 days; for pest or weed control at 250 g/ha: 250 g ai/ha, read-out: damage to plant, Morningglory, Ivy-leaved (100=total damage to plant; 0=no damage to plant)
In short: as §2

Row | Compound | pest or weed control at 15.625 g/ha [1] [%] | pest or weed control at 62.5 g/ha [1] [%] | pest or weed control at 250 g/ha [1] [%] | pest or weed control at 15.625 g/ha [2] [%] | pest or weed control at 62.5 g/ha [2] [%] | pest or weed control at 250 g/ha [2] [%] | plant injury at 15.625 g/ha (corn (Zea mays) [3]) [%] | plant injury at 62.5 g/ha (corn (Zea mays) [3]) [%] | plant injury at 250 g/ha (corn (Zea mays) [3]) [%] | pest or weed control at 15.625 g/ha [4] [%] | pest or weed control at 62.5 g/ha [4] [%] | pest or weed control at 250 g/ha [4] [%] | pest or weed control at 15.625 g/ha [5] [%] | pest or weed control at 62.5 g/ha [5] [%] | pest or weed control at 250 g/ha [5] [%] | pest or weed control at 15.625 g/ha [6] [%] | pest or weed control at 62.5 g/ha [6] [%] | pest or weed control at 250 g/ha [6] [%] | pest or weed control at 15.625 g/ha [7] [%] | pest or weed control at 62.5 g/ha [7] [%] | further results
1 | C=Cc1ccc([C@H]2CN(C)C(=O)[C@@H]2C(=O)Nc2ccccc2F)cc1 (racemic) [Compound 1457] | 0 | 0 | 0 | 0 | 0 | 50 | 0 | 0 | 0 | 0 | 20 | 90 | 0 | 0 | 0 | 0 | 0 | 0 | 0 | 0 | pest or weed control at 250 g/ha [7]: 0%; pest or weed control at 15.625 g/ha [8]: 0%; pest or weed control at 62.5 g/ha [8]: 10%; pest or weed control at 250 g/ha [8]: 10%; plant injury at 15.625 g/ha (corn (Zea mays) [9]): 0%; plant injury at 62.5 g/ha (corn (Zea mays) [9]): 0%; plant injury at 250 g/ha (corn (Zea mays) [9]): 10%; pest or weed control at 15.625 g/ha [10]: 0%; pest or weed control at 62.5 g/ha [10]: 20%; pest or weed control at 250 g/ha [10]: 50%; pest or weed control at 15.625 g/ha [11]: 0%; pest or weed control at 62.5 g/ha [11]: 0%; pest or weed control at 250 g/ha [11]: 0%; pest or weed control at 15.625 g/ha [12]: 0%; pest or weed control at 62.5 g/ha [12]: 0%; pest or weed control at 250 g/ha [12]: 20%
2 | CN1C[C@@H](c2ccc(C(F)(F)F)nc2)[C@H](C(=O)Nc2cccc(F)c2F)C1=O (racemic) [Compound 1458] | 0 | 0 | 70 | 20 | 80 | 80 | 0 | 0 | 50 | 20 | 80 | 80 | 0 | 0 | 30 | 0 | 0 | 20 | 10 | 30 | pest or weed control at 250 g/ha [7]: 30%; pest or weed control at 15.625 g/ha [8]: 10%; pest or weed control at 62.5 g/ha [8]: 20%; pest or weed control at 250 g/ha [8]: 20%; plant injury at 15.625 g/ha (corn (Zea mays) [9]): 10%; plant injury at 62.5 g/ha (corn (Zea mays) [9]): 10%; plant injury at 250 g/ha (corn (Zea mays) [9]): 10%; pest or weed control at 15.625 g/ha [10]: 30%; pest or weed control at 62.5 g/ha [10]: 50%; pest or weed control at 250 g/ha [10]: 60%; pest or weed control at 15.625 g/ha [11]: 0%; pest or weed control at 62.5 g/ha [11]: 0%; pest or weed control at 250 g/ha [11]: 0%; pest or weed control at 15.625 g/ha [12]: 10%; pest or weed control at 62.5 g/ha [12]: 20%; pest or weed control at 250 g/ha [12]: 30%
